Test results as given in patent publication US20220356147A1, “COMPOUNDS AND METHODS FOR POTENTIATING COLISTIN ACTIVITY” (University of Notre Dame du Lac, priority 2019, published 2022).
Where two headings read alike, the source gives them in different places.

How the values were obtained:
[1] = test system: A. baumannii 4106 (AB4106); assay: Broth microdilution, colistin potentiation; assay type: cell-based
Method: (§1) Broth microdilution method for measurement of colistin potentiation: Bacteria were cultured for 4 to 6 hours in CAMHB and diluted to 1.04×10^6 CFU/mL for AB 4106 and 1.96×10^6 CFU/mL for KP B9 in fresh CAMHB. To aliquots (4 mL) was added compound from stock solutions in DMSO. One aliquot was not dosed to allow measurement of the colistin MIC in the absence of compound. A 1 mL aliquot of each sample was dosed with colistin, and from this 200 μL was dispensed into the first row of a 96-well microtiter plate in which all but the final row of subsequent wells was prefilled with 100 μL of the corresponding compound dosed bacterial suspension The final row was filled with media to act as a sterility control and blank. Row one wells were mixed 6-7 times, then, 100 μL was withdrawn and transferred to row two. Row two wells were mixed 6-7 times followed by a 100 μL transfer from row two to row three. This procedure was used to serially dilute the rest of the rows of the microtiter plate, excluding the last prefilled row, which was used to measure growth in the presence of compound alone. Plates were then sealed with GLAD
(§2) Press'n Seal and incubated under stationary conditions at 37° C. […] MIC values were determined as the minimum concentration required to achieve 90% growth inhibition compared to growth in untreated wells.

AB 4106 = assay: Broth microdilution, standalone MIC of compound; assay type: cell-based, A. baumannii; settings: standalone, no colistin, read-out: MIC of compound alone, AB 4106
Method: Broth microdilution method for the determination of minimum inhibitory concentrations: Bacteria were cultured for 4 to 6 hours in CAMHB and subcultured to 1.04×10^6 CFU/mL for AB 4106 and 1.96×10^6 CFU/mL for KP B9 in fresh CAMHB. To aliquots (1 mL) was added compound from stock solutions in DMSO, such that the compound concentration equaled the highest concentration tested. Samples were then dispensed (200 μL) into the first row of a 96-well microtiter plate in which all but the final row of subsequent wells were prefilled with 100 μL of the untreated bacterial subculture. The final row was filled with media to act as a sterility control and blank. Row one wells were mixed 6-7 times, then, 100 μL was withdrawn and transferred to row two. Row two wells were mixed 6-7 times followed by a 100 μL transfer from row two to row three. This procedure was used to serially dilute the rest of the rows of the microtiter plate, excluding the last prefilled row, which was used to measure growth in the absence of compound. Plates were then sealed with GLAD Press'n Seal and incubated under stationary conditions at 37 C. […] MIC values were determined as the minimum concentration required to achieve 90% growth inhibition compared to growth in untreated wells.

4T1 cells = assay: Cell line toxicity (MTT); assay type: cell-based
Method: Cell line Toxicity: 4T1 cells (ATCC Manassas, Va.) were plated at a density of 1×10^4 cells/well in 96-well plates in Roswell Park Memorial Institute Media 1640 (RPMI)
(Gibco, Gaithersburg, MD) supplemented with 10% Fetal Bovine Serum (Gibco), 2 mM GlutaMAX (Gibco) and 50 μM 2-mercaptoethanol (Sigma Aldrich, St. Louis, Mo.) and incubated at 37 C under a 5% CO2 atmosphere in the dark for 18 h. Cell cultures were treated with serial dilutions of compounds in the presence or absence of 1 μg/mL colistin (3 replicates per condition) and incubated for an additional 18 hours. The following control conditions were used: media only (blank), 1% Triton X100 (0% cell viability), 0.5% DMSO (100% cell viability). Each condition was then treated with 10% volume of a 5 mg/mL solution of 3-(4,5-dimethylthiazol-2-yl)-2,5-diphenyltetrazolium bromide (MTT) (Sigma Aldrich) in sterile filtered 1X phosphate buffered saline (PBS) and incubated for 2 h. at 37 C in 5% CO2, after which the media was aspirated and the resulting formazan crystals were resuspended in 100 μL acidified (4 mM HCl) isopropanol. The 96-well plate was then read at 540 nm on a FLUOstar Optima (BMG Labtech Cary, NC) microplate reader. Cell viability was calculated as a percentage using the two previously mentioned controls.

K. pneumoniae B9 (KPB9) = assay: Broth microdilution, colistin potentiation; assay type: cell-based; settings: for ability to break colistin resistance, KPB9: compound at 500 nM
Method: as §1, §2

AB 3941 = assay: Colistin potentiation, colistin-resistant isolate panel; assay type: cell-based, A. baumannii; settings: compound at 5 μM
AB 3942 = assay: as above; assay type: cell-based, A. baumannii; settings: compound at 5 μM
AB 4112 = assay: as above; assay type: cell-based, A. baumannii; settings: compound at 5 μM
AB 4119 = assay: as above; assay type: cell-based, A. baumannii; settings: compound at 5 μM
AB 17978 mcr-1 = assay: as above; assay type: cell-based, A. baumannii; settings: compound at 5 μM
AB4106 and KPB9 = assay: Initial screen for colistin resistance suppression, statements in words for both strains; assay type: cell-based, A. baumannii and K. pneumoniae; settings: compound at 5 μM
Method: as §1, §2

[2] = compound at 5 μM, colistin alone 2048 μg/mL

SMILES | Colistin MIC fold reduction, AB 4106 ([1]; compound at 1 μM) | Colistin MIC fold reduction, AB 4106 ([1]; compound at 3 μM) | Colistin MIC fold reduction, AB 4106 [1, 2] | MIC (AB 4106; Acinetobacter baumannii, 16 h) | ability to break colistin resistance, KPB9 (K. pneumoniae B9 (KPB9)) | Colistin MIC fold reduction, AB 3941 (AB 3941) | Colistin MIC fold reduction, AB 3942 (AB 3942) | Colistin MIC fold reduction, AB 4112 (AB 4112) | Colistin MIC fold reduction, AB 4119 (AB 4119) | Colistin MIC fold reduction, AB 17978 mcr-1 (AB 17978 mcr-1) | other results
O=C(Nc1cc(F)cc(F)c1)c1cc(Cl)ccc1O [Compound 21] | 64 fold | 512 fold | 1024 fold | > 200 µM |  |  |  |  |  |  | CT50 (cytotoxicity) (4T1 cells; mouse, 18 h): 210 µM; toxicity compared to IMD-0354 (4T1 cells; mouse, 18 h): comparable toxicity to IMD-0354
O=C(Nc1cc(Br)cc(Br)c1)c1cc(Cl)ccc1O [Compound 23] | 256 fold | 1024 fold | 1024 fold | > 200 µM | retained the ability to break colistin resistance | (512) fold | (≥2048) fold | (1024) fold | (1024) fold | (128) fold | no measurable toxicity up to (4T1 cells; mouse, 18 h): > 200 µM
O=C(Nc1cc(C(F)(F)F)cc(C(F)(F)F)c1Cl)c1cc(Cl)ccc1O [Compound 25] | 512 fold | 1024 fold | 2048 fold |  |  |  |  |  |  |  | Colistin MIC against AB 4106 ([1]; in presence of compound at 1 μM): 4 µg/mL; Colistin MIC against AB 4106 ([1]; in presence of compound at 3 μM): 2 µg/mL; Colistin MIC against AB 4106 ([1]; in presence of compound at 5 μM): 1 µg/mL; MIC (AB 4106): 50 µM; Colistin MIC against AB 3941 (AB 3941): 1 µg/mL; Colistin MIC against AB 3942 (AB 3942): 1 µg/mL; Colistin MIC against AB 4112 (AB 4112): 1 µg/mL; Colistin MIC against AB 4119 (AB 4119): 1 µg/mL; Colistin MIC against AB 17978 mcr-1 (AB 17978 mcr-1): 0.5 µg/mL; toxicity compared to IMD-0354 (4T1 cells; 4T1 cells, MTT): ca. two-fold more toxic than IMD-0354; CT50 (cytotoxicity) (4T1 cells; 4T1 cells, MTT, 18 hours): 110 µM
O=C(Nc1ccc(C(F)(F)F)cc1)c1cc(Cl)ccc1O [Compound 26] | 128 fold | 1024 fold | 2048 fold | > 200 µM |  |  |  |  |  |  | no measurable toxicity up to (4T1 cells; mouse, 18 h): > 200 µM; Colistin potentiation activity in words, compared to IMD-0354 (AB4106 and KPB9): activity equivalent to IMD-0354
O=C(Nc1ccc(C(F)(F)F)c(F)c1)c1cc(Cl)ccc1O [Compound 29, 5-chloro-N-(3-fluoro-4-(trifluoromethyl)phenyl)-2-hydroxybenzamide] | 512 fold | 1024 fold | 2048 fold | > 200 µM | retained the ability to break colistin resistance | (1024) fold | (≥4096) fold | (2048) fold | (512) fold | (512) fold | colistin MIC relative to breakpoint levels, KPB9 (K. pneumoniae B9 (KPB9); compound at 250 nM, breakpoint 2 μg/mL): reduced the colistin MIC below breakpoint levels; Colistin potentiation activity in words, compared to IMD-0354 (AB4106 and KPB9): activity equivalent to IMD-0354
O=C(Nc1cc(Cl)cc(Cl)c1)c1cc(I)ccc1O [Compound 51] | 512 fold | 2048 fold | 2048 fold | > 200 µM | retained the ability to break colistin resistance | (1024) fold | (≥4096) fold | (2048) fold | (2048) fold | (512) fold | 
O=C(Nc1cc(Br)cc(Br)c1)c1cc(I)ccc1O [Compound 52, N-(3,5-dibromophenyl)-2-hydroxy-5-iodobenzamide] | 256 fold | 1024 fold | 2048 fold | > 200 µM | retained the ability to break colistin resistance | (1024) fold | (≥4096) fold | (2048) fold | (512) fold | (256) fold | 
